Reference: US20260109707A1, “HETEROBIFUNCTIONAL COMPOUNDS AND METHODS OF TREATING DISEASE” (Halda Therapeutics OpCo. Inc., priority 2022, published 2026)
Where two headings read alike, the source gives them in different places.

Legend:
[1] = test system: T-Rex 293 cell line SC3 cells having increased expression of androgen receptor protein due to exposure to doxycycline; test: Cellular growth inhibition assay, T-Rex 293 SC3 cells with doxycycline (CellTiter-Glo, 72 hours); format: cell-based; details: T-Rex 293 SC3 cells with increased androgen receptor expression due to doxycycline (10 ng/mL)
Summary of the method: (§1)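 Growth inhibition is measured in an inducible AR-expressing T-Rex 293 clone, SC3, cultured with or without 10 ng/mL doxycycline in hormone-depleted medium. Test compounds are applied for 72 hours. GI50 values derive from CellTiter-Glo 2.0 signal fitted by four-parameter regression.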

[2] = test system: T-Rex 293 cell line SC3 cells lacking increased expression of androgen receptor protein; test: Cellular growth inhibition assay, T-Rex 293 SC3 cells without doxycycline (CellTiter-Glo, 72 hours); format: cell-based; details: T-Rex 293 cell line SC3 cells not exposed to doxycycline (lacking increased androgen receptor expression)
Summary of the method: as §1

VCaP cells = test: Cellular growth inhibition assay for VCaP cells (CellTiter-Glo, 72 hours); format: cell-based, human
Summary of the method: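 Luminescent viability signal after 72 h of compound exposure gave GI50 values by four-parameter nonlinear regression. Compounds were added in 0.5% DMSO to cells plated 24 h earlier at 5000/well in DMEM containing 10% FBS.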

SMILES | GI50 ([1]; 72 h) [nM] | GI50 ([2]; 72 h) [nM] | GI50 (VCaP cells; Homo sapiens, VCaP, 72 h) [nM] | GI50 (VCaP cells) [nM] | GI50 [2] [nM] | GI50 [1] [nM]
Cc1sc2c(c1C)C(c1ccc(NCCCC3CCN(c4ncc(C(=O)N[C@H]5CC[C@H](Oc6ccc(C#N)c(Cl)c6)CC5)cn4)CC3)cc1)=NC(Cc1ncco1)c1nnc(C)n1-2 (stereo partly drawn) [I-806] | < 500 | < 500 | < 500 | – | – | –
COCC[C@@H]1N=C(c2ccc(C3CCC4(CCN(c5ccc(C(=O)N[C@H]6CC[C@H](Oc7ccc(C#N)c(Cl)c7)CC6)nn5)CC4)C3)cc2)c2c(sc(C)c2C)-n2c(C)nnc21 (stereo partly drawn) [I-616] | < 500 | < 500 | – | > 3000 | – | –
Cc1sc2c(c1C)C(c1ccccc1OC1CCN(c3ccc(C(=O)N[C@H]4CC[C@H](Oc5ccc(C#N)c(Cl)c5)CC4)nn3)CC1)=N[C@@H](C)c1nnc(C)n1-2 [I-649] | > 3000 | > 3000 | < 500 | – | – | –
Cc1sc2c(c1C)C(c1ccc(N3CC4(CC(Cc5ccc(C(=O)N[C@H]6CC[C@H](Oc7ccc(C#N)c(Cl)c7)CC6)nn5)C4)C3)cc1)=N[C@@H](C)c1nnc(C)n1-2 [I-604] | < 500 | < 500 | < 500 | – | – | –
Cc1sc2c(c1C)C(c1ccc(N[C@H]3CC[C@H](Nc4ncc(C(=O)N[C@H]5CC[C@H](Oc6ccc(C#N)c(Cl)c6)CC5)cn4)CC3)cc1)=NC(Cc1ncco1)c1nnc(C)n1-2 (stereo partly drawn) [I-790] | < 500 | < 500 | < 500 | – | – | –
Cc1sc2c(c1C)C(c1ccc(OCC3CC4(CCCN(c5ccc(C(=O)N[C@H]6CC[C@H](Oc7ccc(C#N)c(Cl)c7)CC6)nn5)C4)C3)cn1)=NC1(CC1)c1nnc(C)n1-2 (stereo partly drawn) [I-561] | < 500 | – | – | > 3000 | 500 to 1500 | –
COCC[C@@H]1N=C(c2ccc(C3CCC4(CCN(c5ccc(C(=O)N[C@H]6CC[C@H](Oc7ccc(C#N)c(Cl)c7)CC6)nn5)CC4)C3)cc2)c2c(sc(C)c2C)-n2c(C)nnc21 (stereo partly drawn) [I-617] | – | – | – | < 500 | 500 to 1500 | < 500
Cc1sc2c(c1C)C(c1ccc(N3CCC4(CCN(c5ccc(C(=O)N[C@H]6CC[C@H](Oc7ccc(C#N)c(Cl)c7)CC6)nn5)C4)C3)cc1F)=N[C@@H](C)c1nnc(C)n1-2 (stereo partly drawn) [I-746] | – | – | < 500 | – | 500 to 1500 | < 500
Cc1sc2c(c1C)C(c1ccc(N3CCC4(CCCN(c5ccc(C(=O)N[C@H]6CC[C@H](Oc7ccc(C#N)c(Cl)c7)CC6)nn5)C4)CC3)cn1)=NC1(CC1)c1nnc(C)n1-2 [I-501] | < 500 | > 3000 | < 500 | – | – | –
Cc1sc2c(c1C)C(c1ccc(OC3CCC4(C3)CN(c3ccc(C(=O)N[C@H]5CC[C@H](Oc6ccc(C#N)c(Cl)c6)CC5)nn3)CCO4)cc1)=NC1(CC1)c1nnc(C)n1-2 (stereo partly drawn) [I-506] | < 500 | > 3000 | – | 1500 to 3000 | – | –
Cc1sc2c(c1C)C(c1ccc(N3C[C@@]4(F)CN(c5ccc(C(=O)N[C@H]6CC[C@H](Oc7ccc(C#N)c(Cl)c7)CC6)nn5)C[C@@]4(F)C3)cc1)=N[C@@H](C)c1nnc(C)n1-2 [I-675] | < 500 | < 500 | < 500 | – | – | –
Cc1sc2c(c1C)C(c1ccc(OC3CCC4(C3)CN(c3ccc(C(=O)N[C@H]5CC[C@H](Oc6ccc(C#N)c(Cl)c6)CC5)nn3)CCO4)cc1)=N[C@@H](C)c1nnc(C)n1-2 (stereo partly drawn) [I-540] | – | – | – | 1500 to 3000 | < 500 | < 500
Cc1sc2c(c1C)C(c1ccc(N[C@H]3CCCCN(c4ncc(C(=O)N[C@H]5CC[C@H](Oc6ccc(C#N)c(Cl)c6)CC5)cn4)C3)cc1)=NC(Cc1ncco1)c1nnc(C)n1-2 (stereo partly drawn) [I-803] | < 500 | > 3000 | < 500 | – | – | –
Cc1sc2c(c1C)C(c1ccc(CC3CN(C(C)(C)C4CCN(c5ccc(C(=O)N[C@H]6CC[C@H](Oc7ccc(C#N)c(Cl)c7)CC6)nn5)CC4)C3)cc1)=N[C@@H](C)c1nnc(C)n1-2 [I-640] | < 500 | > 3000 | < 500 | – | – | –
CC[C@@H]1N=C(c2ccc(N3CC4(CC(Cc5ccc(C(=O)N[C@H]6CC[C@H](Oc7ccc(C#N)c(Cl)c7)CC6)nn5)C4)C3)cc2)c2c(sc(C)c2C)-n2c(C)nnc21 [I-610] | < 500 | > 3000 | 500 to 1500 | – | – | –
Cc1sc2c(c1C)C(c1ccc(C3CCC4(CC3)CCN(c3ccc(C(=O)N[C@H]5CC[C@H](Oc6ccc(C#N)c(Cl)c6)CC5)nn3)C4)cc1)=N[C@@H](Cc1ncco1)c1nnc(C)n1-2 (stereo partly drawn) [I-824, N-((1r,4r)-4-(3-chloro-4-cyanophenoxy)cyclohexyl)-6-(8-(4-((S)-2,3,9-trimethyl-6-(oxazol-2-ylmethyl)-6H-thieno[3,2-f][1,2,4]triazolo[4,3-a][1,4]diazepin-4-yl)phenyl)-2-azaspiro[4.5]decan-2-yl)pyridazine-3-carboxamide] | – | – | – | < 500 | < 500 | < 500
Cc1sc2c(c1C)C(c1ccc(OCC3CC4(CCCN(c5ccc(C(=O)N[C@H]6CC[C@H](Oc7ccc(C#N)c(Cl)c7)CC6)nn5)C4)C3)cc1)=NCc1nnc(C)n1-2 (stereo partly drawn) [I-447] | – | – | – | > 3000 | > 3000 | < 500

SMILES | GI50 ([1]; 72 h) [nM] | GI50 ([2]; 72 h) [nM] | GI50 (VCaP cells; Homo sapiens, VCaP, 72 h) [nM] | GI50 (VCaP cells) [nM] | GI50 [2] [nM] | GI50 [1] [nM]
Cc1sc2c(c1C)C(c1ccc(N3CCC4CN(c5ccc(C(=O)N[C@H]6CC[C@H](Oc7ccc(C#N)c(Cl)c7)CC6)nn5)CCC4C3)cc1)=NC1(CC1)c1nnc(C)n1-2 (stereo partly drawn) [I-549] | < 500 | – | – | > 3000 | < 500 | –
Cc1sc2c(c1C)C(c1ccc(CC3CCC4(C3)CN(c3ccc(C(=O)N[C@H]5CC[C@H](Oc6ccc(C#N)c(Cl)c6)CC5)nn3)CCO4)cc1)=N[C@@H](C)c1nnc(C)n1-2 (stereo partly drawn) [I-580] | – | – | – | < 500 | < 500 | < 500
Cc1sc2c(c1C)C(c1ccc(CCCC3CCCN(c4ccc(C(=O)N[C@H]5CC[C@H](Oc6ccc(C#N)c(Cl)c6)CC5)nn4)CC3)nc1)=N[C@@H](C)c1nnc(C)n1-2 (stereo partly drawn) [I-671] | < 500 | < 500 | < 500 | – | – | –
COCC1N=C(c2ccc(C#CC3CC4(C3)CN(c3ccc(C(=O)N[C@H]5CC[C@H](Oc6ccc(C#N)c(Cl)c6)CC5)nn3)C4)cc2)c2c(sc(C)c2C)-n2c(C)nnc21 (stereo partly drawn) [I-571] | – | – | – | < 500 | < 500 | < 500
Cc1sc2c(c1C)C(c1ccc(N3CC4(CC(Cc5ccc(C(=O)N[C@H]6CC[C@H](Oc7ccc(C#N)c(Cl)c7)CC6)nn5)C4)C3)cc1)=NC(C(F)(F)F)c1nnc(C)n1-2 (stereo partly drawn) [I-724] | – | > 3000 | < 500 | – | – | > 3000
Cc1sc2c(c1C)C(c1ccc(C3CCC4(CCN(c5ccc(C(=O)N[C@H]6CC[C@H](Oc7ccc(C#N)c(Cl)c7)CC6)nn5)CC4)C3)cc1)=NC(C(F)(F)F)c1nnc(C)n1-2 (stereo partly drawn) [I-759] | – | > 3000 | < 500 | – | – | > 3000
Cc1sc2c(c1C)C(c1cccc(OC3CCC4(CCN(c5ccc(C(=O)N[C@H]6CC[C@H](Oc7ccc(C#N)c(Cl)c7)CC6)nn5)C4)C3)c1)=N[C@@H](C)c1nnc(C)n1-2 (stereo partly drawn) [I-750] | – | – | – | < 500 | < 500 | < 500
Cc1sc2c(c1C)C(c1ccc(C3CCC4(CCN(c5ccc(C(=O)N[C@H]6CC[C@H](Oc7ccc(C#N)c(Cl)c7)CC6)nn5)CC4)C3)nc1)=N[C@@H](C)c1nnc(C)n1-2 (stereo partly drawn) [I-553] | < 500 | – | – | < 500 | < 500 | –
Cc1sc2c(c1C)C(c1ccc(N3C[C@H]4CN(c5ccc(C(=O)N[C@H]6CC[C@H](Oc7ccc(C#N)c(Cl)c7)CC6)nn5)C[C@H]4C3)c(F)c1)=N[C@@H](C)c1nnc(C)n1-2 [I-703] | < 500 | < 500 | 500 to 1500 | – | – | –
Cc1sc2c(c1C)C(Oc1ccc(C3CC4(CCN(c5ccc(C(=O)N[C@H]6CC[C@H](Oc7ccc(C#N)c(Cl)c7)CC6)nn5)CC4)C3)cc1)=NC(Cc1ncco1)c1nnc(C)n1-2 (stereo partly drawn) [I-631] | > 3000 | > 3000 | < 500 | – | – | –
Cc1sc2c(c1C)C(c1ccc(C#CC3CC4(CCCN(c5ccc(C(=O)N[C@H]6CC[C@H](Oc7ccc(C#N)c(Cl)c7)CC6)nn5)C4)C3)cn1)=NC(C)c1nnc(C)n1-2 (stereo partly drawn) [I-454] | – | – | < 500 | – | > 3000 | < 500
Cc1sc2c(c1C)C(c1ccc(OCC3CC4(CCCN(c5ccc(C(=O)N[C@H]6CC[C@H](Oc7ccc(C#N)c(Cl)c7)CC6)nn5)C4)C3)nc1)=NC1(CC1)c1nnc(C)n1-2 (stereo partly drawn) [I-487] | – | – | – | < 500 | > 3000 | < 500
Cc1sc2c(c1C)C(c1ccc(CC3CCC4(CCCN(c5ccc(C(=O)N[C@H]6CC[C@H](Oc7ccc(C#N)c(Cl)c7)CC6)nn5)C4)C3)cc1)=N[C@@H](C)c1nnc(C)n1-2 (stereo partly drawn) [I-584] | – | – | – | 1500 to 3000 | < 500 | < 500
Cc1sc2c(c1C)C(c1cccc(N3CCC4(CCCN(c5ccc(C(=O)N[C@H]6CC[C@H](Oc7ccc(C#N)c(Cl)c7)CC6)nn5)C4)CC3)c1)=N[C@@H](C)c1nnc(C)n1-2 [I-687] | < 500 | > 3000 | < 500 | – | – | –
Cc1sc2c(c1C)C(c1ccc(OC3CCC4(C3)CN(c3ccc(C(=O)N[C@H]5CC[C@H](Oc6ccc(C#N)c(Cl)c6)CC5)nn3)CCO4)cc1)=NC1(CC1)c1nnc(C)n1-2 (stereo partly drawn) [I-507] | – | – | – | > 3000 | > 3000 | < 500
CC1=NN=C2C1c1sc(C)c(C)c1C(c1ccc(N3C[C@@H]4CN(c5ccc(C(=O)N[C@H]6CC[C@H](Oc7ccc(C#N)c(Cl)c7)CC6)nn5)C[C@@H]4C3)cc1)=NC21CC1 (stereo partly drawn) [I-505] | < 500 | > 3000 | < 500 | – | – | –
CC[C@@H]1N=C(c2ccc(N3CCC(Cc4ccc(C(=O)N[C@H]5CC[C@H](Oc6ccc(C#N)c(Cl)c6)CC5)nn4)CC3)cc2)c2c(sc(C)c2C)-n2c(C)nnc21 [I-614] | < 500 | 500 to 1500 | < 500 | – | – | –
